Results from US7129218B2, “Use of rhamnolipids in wound healing, treatment and prevention of gum disease and periodontal regeneration” (Paradigm Biomedical, Inc., priority 1999, dated 2006).

Assays:
[1] = system: neonatal human keratinocyte cells; assay: Caspase detection in neonatal human keratinocyte cells in GM medium (with serum); assay type: cell-based
Description: The procedure for caspase detection in neonatal human keratinocyte cells in GM* medium (with serum) treated with BAC-3 using fluorescence spectroscopy
The same procedure as described for keratinocyte cells in KGM, but with presence of serum (GM). Passage #3 cells were grown in KGM medium for 7 days with one medium change. Plates were irradiated with UVB light for 66 seconds (792 J/m^2)
Cells, at 80% confluence, were administered BAC-3 in GM at 100 μg/ml, 50 μg/ml, 10 μg/ml and 1 μg/ml concentrations. Medium was replaced every two days over the period of 6 days. On day 3, positive apoptosis control was established by irradiating cells with 792 J/m^2 UVB light and incubating them with 1 μg/ml FAS antibody. BAC-3 treated and control cells were harvested and cell densities were adjusted to 1×10^6 cells per ml with FM. 300 μl cell aliquots were labeled with FAM-VAD-FMK, fluorescent-tagged, irreversible caspase inhibitor. Unlabelled inhibitor was washed away with buffer and 100 μl aliquots were read at 485 nm excitation and 535 nm emission with fluorescence detector. Error bars indicate standard deviations.

[2] = system: burn wounds; assay: Burn wounds, 7% body surface, topical treatment (rats); assay type: in vivo, Sprague-Dawley rats; details: for mean value of collagen tissue: histopathology day 45; for mean value of collagen concentration relative to placebo group 1 D taken as 100%: day 45
Description: The wounding of animals was performed according to the Protocol for Animal Use and Care at the University of California-Davis (hereafter UC-Davis). The entire animal protocol required 70 Sprague-Dawley rats: 30 rats for incision wounds and 40 rats for burn wounds. Among them 36 rats were burned over 7% of their skin and 4 rats were burned over 15% of their skin. Incision wounds of whole skin and burn wounds were treated topically with 2 test doses of the pharmaceutical preparation of di-rhamnolipid BAC-3. […] D.E.A. Hamburg); 23.8 g Lanolinum (Producer I.O.I. Hamburg); 4.7 g Cholesterin (Producer: Solvay, Wiena, Austria); Water Number: 320); or b). 1%; 0.1% active rhamnolipid (BAC-3) with antiseptic (chlorhexidine hydrochloride-[…]). Eucerin with BAC-3 was administrated twice daily during healing. The same experiment had one control group without the treatment, and one control group which was treated with ointment+1% chlorhexidine hydrochloride. During the experiment, animal body weight and behavior was checked every third day, and photographs were taken periodically. Burn wounds. The consecutive burn wounds should ideally be identical in depth and extent. The standard method defines the size and location of the burn wound, the temperature gradient, duration of exposure and method of applying the burn. The wound surface areas tested were of two different sizes. One size to 7% of the body surface, which enables one to compare the rate of wound healing with different percentage of BAC-3 and the other size to 15% of the body surface, which is a sufficient size so that healing could not occur by contraction alone. On the other hand, the total wound surface area should not cause major systematic problems. The latter can be concluded from undisturbed weight gain of the animals. The standard animal burn was performed by techniques and device described by Walker. The burning devices were prepared using a model device ordered from U.S. Army Surgical Research Unit, Experimental Surgery, Army Medical Center, Fort Sam Houston, Tex. 78234. […] The surface of the skin was measured for every animal using Mech's formula: A=kW^2/3; A=surface area in cm^2; W=body weight in grams; k=10. Method of burning. Each animal was anesthetized with sodium pentobarbital administered i/p (5 mg/25 g). (Producer: Veterinary Laboratory Inc. Lenexa, Kans.). The hair over the dorsum was clipped with animal clippers. The animal was placed supine in the burning device and the extremities were tied; the malleable retractor was placed over the animal and secured snugly with plastic straps. The entire device was then picked up by the retractor ends with forceps and the exposed area was immersed in boiling water. Ten seconds of exposure was sufficient to produce a full-thickness burn. On removal from the water, the dorsum was quickly dried by rolling on a towel and the animal was released and individually caged. This procedure produced a uniform burn with sharp margins. On post burn days 7, 14 and 45, animals were sacrificed by overdose of sodium pentobarbital and skin specimens were taken for histopathology. Specimens included the wound bed as well as the healthy skin of the wound margins. The specimens were fixed, and two stainings were routinely performed: Hematoxylin-Eosin (H&E) for microscopic evaluation, Verhoeff's staining for a better visualization of the crust and the regenerating dermis, and the alpha smooth muscle acting to identify the myofibroblasts. Microscopic findings were interpreted by a veterinarian pathologist. During the microscopic and macroscopic observations, four wound healing parameters were evaluated: crust formation, re-epithelialization, formation of granulation tissue and inflammation. 36 rats were divided into 6 groups. Each group had six animals. After burning rats according to the above-described procedure, each rat was caged individually. […]

CCCCCCCC(CC(=O)O)OC(=O)CC(CCCCCCC)OC1OC(C)C(O)C(O)C1OC1OC(C)C(O)C(O)C1O [BAC-3, (α-L-rhamnopyranosyl-(1,2)-α-L-rhamnopyranosyl)-3-hyroxydecanoyl-3-hydroxydecanoic acid]
optimal concentration for inhibiting apoptosis ([1]; keratinocytes in GM with serum, 6 days, tested 100, 50, 10, 1 and 0.5 μg/ml): 50 µg/mL
effect on apoptosis (caspase enzyme activity) ([1]; keratinocytes in GM, presence of serum): inhibited
body weights among the treatment groups ([2]; 1% and 0.1% BAC-3 in eucerin vs vehicle, 45 days): no significant differences
rate of burn wound closure (decrease in wound size) vs vehicle alone ([2]; 7% burn, 0.1% BAC-3 in eucerin twice daily, no chlorhexidine, FIG. 1): significantly faster
burn wound size (distance across wound edges) vs vehicle alone ([2]; 7% burn, 0.1% BAC-3 in eucerin, days 14, 21 and 28, p<0.05 by ANOVA, FIG. 2): significantly smaller
crust formation, difference between groups ([2]; 7% burn, BAC-3 1% or 0.1% ointment with or without chlorhexidine vs placebo, 45 days): no significant differences
granulation tissue ([2]; 7% burn, group 1-A, 1% BAC-3 in ointment twice daily): prominently developed
re-epithelization in the middle part of the burn wounds ([2]; 7% burn, group 1-B, 0.1% BAC-3 in ointment twice daily): faster
mean value of collagen tissue ([2]; 7% burn, group 1 A, 1% BAC-3 ointment, no chlorhexidine): 8.48 mm^2
mean value of collagen tissue ([2]; 7% burn, group 1 B, 0.1% BAC-3 ointment, no chlorhexidine): 5.15 mm^2
granulation tissue ([2]; 7% burn, group 2-A, 1% BAC-3 in ointment plus 1% chlorhexidine hydrochloride twice daily): prominently developed
re-epithelization in the middle part of the burn wounds ([2]; 7% burn, group 2-B, 0.1% BAC-3 in ointment plus 1% chlorhexidine hydrochloride twice daily): faster
hair growth during the healing period ([2]; group 1-A, 1% BAC-3 in ointment, compared to the other groups): very prominent
mean value of collagen concentration relative to placebo group 1 D taken as 100% ([2]; group 1 A, 1% BAC-3): 131.26%
mean value of collagen concentration relative to placebo group 1 D taken as 100% ([2]; group 1 B, 0.1% BAC-3): 79.72%
